Legend:
[1] = test system: HEK293sieSTAT3(Y640F); assay: drug sensitivity score (DSS), cytotoxicity CellTox Green (DSS (dimensionless)); higher = more cytotoxic; extreme values may be limits of the assay; conditions: 72 h; STAT3 variant: Y640F (constitutively active)
Outline: (§1)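 Each value is one representative of two experiments in which HEK293 cells overexpressing wild-type or mutant STAT3 with a STAT3-dependent luciferase reporter were exposed to compounds at 5 concentrations (10-fold dilutions) for 72 hours at 37°C and 5% CO2. Readouts were CellTox Green fluorescence and then CellTiter-Glo luminescence, normalised to negative and positive control wells. The drug sensitivity score was based on the dose-response curve area and computed in Breeze.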

[2] = test system: HEK293sieSTAT3(wt); assay: as above; conditions: 72 h; STAT3 variant: wild type
Outline: as §1

[3] = test system: HEK293sieSTAT3(Y640F); assay: drug sensitivity score (DSS), viability CellTiter-Glo (DSS (dimensionless)); higher = more growth inhibition; extreme values may be limits of the assay; conditions: 72 h; STAT3 variant: Y640F (constitutively active)
Outline: as §1

[4] = test system: HEK293sieSTAT3(wt); assay: as above; conditions: 72 h; STAT3 variant: wild type
Outline: as §1

SMILES	drug sensitivity score [1]	drug sensitivity score [2]	drug sensitivity score [3]	drug sensitivity score [4]
CC(C)(C)C[C@@H]1N[C@@H](C(=O)N[C@H]2CC[C@H](O)CC2)[C@H](c2cccc(Cl)c2F)[C@]12C(=O)Nc1cc(Cl)ccc12 (top concentration tested 10000 nM)	2.22	2.72	3.68	4.33
CCNC(=O)C[C@@H]1N=C(c2ccc(Cl)cc2)c2cc(OC)ccc2-n2c(C)nnc21 (top concentration tested 10000 nM)	0.87	5.42	9.51	4.81
CCc1cc(Nc2nccc(-c3c(-c4ccc(OC)c(C(=O)Nc5c(F)cccc5F)c4)nc4ccccn34)n2)c(OC)cc1N1CCC(N2CCN(S(C)(=O)=O)CC2)CC1 (top concentration tested 10000 nM)	0	0	10.9	9.73
CCc1cncnc1N1CCN(Cc2nc3ccc(C(F)(F)F)cc3[nH]2)CC1 (top concentration tested 10000 nM)	1.05	0.48	2.33	1.35
CCn1c(-c2nonc2N)nc2cnc(Oc3cccc(NC(=O)c4ccc(OCCN5CCOCC5)cc4)c3)cc21 (top concentration tested 10000 nM)	0.98	1.34	7.47	6.32
CN(c1ccccc1CNc1nc(Nc2ccc3c(c2)CC(=O)N3)ncc1C(F)(F)F)S(C)(=O)=O (top concentration tested 10000 nM)	1.46	6.16	10.1	11.2
CNc1ncc2cc(-c3cc(NC(=O)NCCC(C)(C)C)c(F)cc3C)c(C)nc2n1 (top concentration tested 10000 nM)	0	0.9	5.64	3.99
COc1ccc(Cn2ccc3ccc(C(=O)NO)cc32)cc1 (top concentration tested 10000 nM)	0	0	2.79	3.02
N#Cc1ccc(COC[C@H]2O[C@@H](n3c(NCc4ccc(Cl)c(Cl)c4)nc4c(N)ncnc43)[C@H](O)[C@@H]2O)cc1 (top concentration tested 10000 nM)	0	0.11	4.87	3.11
NC[C@@](O)(c1ccc(Cl)cc1)c1ccc(-c2cn[nH]c2)cc1 (top concentration tested 10000 nM)	6.08	6.61	7.85	6.8
Nc1ncnc2c1c(COc1cccc(Cl)c1)nn2C1CCOCC1 (top concentration tested 10000 nM)	0	0	0	0.14
O=C(NC[C@H](O)CN1CCc2ccccc2C1)c1cc(NC2COC2)ncn1 (top concentration tested 10000 nM)	0	0	0	0
O=C(O)c1ccc(-c2c[nH]c3ncc(-c4ccccc4)cc23)cc1C1CCCC1 (top concentration tested 10000 nM)	0	3.29	2.42	3.17
O=C(O)c1ccc(CN2CCC(CN[C@@H]3C[C@H]3c3ccccc3)CC2)cc1 (top concentration tested 10000 nM)	0	0	0	0
O=c1[nH]c(C2CCCN2)nc2c1oc1ccc(Cl)cc12 (centres undefined) (top concentration tested 10000 nM)	0	0	5.66	6.39
C[C@@H]1CN(CC(=O)Nc2ccc3c(c2)Cc2cccc(-c4cc(=O)cc(N5CCOCC5)o4)c2S3)C[C@H](C)O1 (top concentration tested 25000 nM)	5.17	8.78	8.24	9.16
NCC(=O)Nc1ccc(-n2nc(C(F)(F)F)cc2-c2ccc3c(ccc4ccccc43)c2)cc1 (top concentration tested 25000 nM)	5.9	7.25	13.5	16.3
Cc1ccc2nc(CN(CCN(Cc3nc4ccc(C)cc4[nH]3)Cc3nc4ccc(C)cc4[nH]3)Cc3nc4ccc(C)cc4[nH]3)[nH]c2c1 (top concentration tested 50000 nM)	3.51	5.64	4.22	3.52
Cc1nn(C)c(COc2ccc(N3CCN(S(=O)(=O)N(C)C)CC3)cc2)c1-c1cccc2c(CCCOc3cccc4ccccc34)c(C(=O)O)n(CCN3CCOCC3)c12 (top concentration tested 50000 nM)	7.51	7.01	9.56	5.26
O=c1cc(N2CCOCC2)oc2c(-c3ccccc3)cccc12 (top concentration tested 100000 nM)	2.63	5.12	10.6	11.8
Oc1c2ccccc2c2c3c(cccc13)N=N2 (top concentration tested 100000 nM)	0.97	2.91	7.42	6.18
Cn1cc(C[C@@H](N)C(=O)O)c2ccccc21 [1-methyl-D-tryptophan] (top concentration tested 5000 nM)	0	0	0	0
COc1cc2c(cc1O)CC[C@@H]1[C@@H]2CC[C@]2(C)[C@@H](O)CC[C@@H]12 [2-methoxyestradiol] (top concentration tested 10000 nM)	0	5.9	6.57	10.6

SMILES	drug sensitivity score [1]	drug sensitivity score [2]	drug sensitivity score [3]	drug sensitivity score [4]
CC/C(=C(\c1ccc(O)cc1)c1ccc(OCCN(C)C)cc1)c1ccccc1 [4-hydroxytamoxifen] (top concentration tested 10000 nM)	6.81	7.36	6.34	7.39
Nc1ncnc2c1nc(N)n2[C@@H]1O[C@H](CO)[C@@H](O)[C@H]1O [8-amino-adenosine] (top concentration tested 50000 nM)	11.1	15.1	21.9	23.9
Nc1ncnc2c1nc(Cl)n2[C@@H]1O[C@H](CO)[C@@H](O)[C@H]1O [8-chloro-adenosine] (top concentration tested 50000 nM)	2.41	7.97	16.2	18.4
CCCCC/C=C/C=C1/C(=O)C=C[C@@H]1C/C=C\CCCC(=O)O [15D-PGJ2] (top concentration tested 3000 nM)	0	0	1.33	0
COc1cc(O)c2c(c1)/C=C/C[C@H](O)[C@H](O)C(=O)/C=C\C[C@H](C)OC2=O [(5Z)-7-Oxozeaenol] (top concentration tested 10000 nM)	2.58	6.67	3.74	4.51
COc1ccc(S(=O)(=O)Nc2cccnc2Nc2ccc(O)cc2)cc1 [ABT-751] (top concentration tested 10000 nM)	2.68	9.49	11.4	14.3
Cc1ccccc1C(C(=O)NC1CCCCC1)N(C(=O)Cn1ccnc1C)c1cccc(F)c1 (centres undefined) [AGI-5198] (top concentration tested 10000 nM)	0	0	0.76	1.02
O=C(Nc1cccc(C(F)(F)F)c1)Nc1cc(S(=O)(=O)NC2CC2)ccc1-c1ccsc1 [AGI-6780] (top concentration tested 10000 nM)	0	1.62	1.05	2.88
COc1ccc2c(OCc3nnc4ccc(-c5ccccc5)nn34)ccnc2c1 [AMG-208] (top concentration tested 2500 nM)	0.89	0.89	1.58	0.59
CC(C)[C@@H](CS(=O)(=O)C(C)C)N1C(=O)[C@@](C)(CC(=O)O)C[C@H](c2cccc(Cl)c2)[C@H]1c1ccc(Cl)cc1 [AMG-232] (top concentration tested 1000 nM)	0	0	0	0
Cc1csc(-c2nnc(Nc3ccc(Oc4ncccc4-c4ccnc(N)n4)cc3)c3ccccc23)c1 [AMG-900] (top concentration tested 1000 nM)	0	0	4.35	3.01
CC1CCC(n2c3cnccc3c3cnc(Nc4ccc5c(n4)CCN(C(=O)CO)C5)nc32)CC1 (centres undefined) [AMG-925] (top concentration tested 1000 nM)	0	2.08	5.44	5.61
COCC1(CO)C(=O)C2CCN1CC2 (centres undefined) [APR-246] (top concentration tested 10000 nM)	0	0	0	1.99
CC(C)[C@H](C(=O)Nc1ccc(C(=O)NO)cc1)c1ccccc1 [AR-42] (top concentration tested 10000 nM)	5.41	8.7	14.4	16.5
CNC(=O)c1ccc(N2C(=S)N(c3cnc(C#N)c(C(F)(F)F)c3)C(=O)C23CCC3)cc1F [ARN 509] (top concentration tested 10000 nM)	0	0	2.68	2.33
COc1cc(N2CCC(N3CCN(C)CC3)CC2)ccc1Nc1ncnc(Nc2ccccc2S(=O)(=O)C(C)C)n1 [ASP3026] (top concentration tested 10000 nM)	0.7	4.8	7.3	8.01
O=C(NC1CCNCC1)c1n[nH]cc1NC(=O)c1c(Cl)cccc1Cl [AT7519] (top concentration tested 10000 nM)	4.11	12.2	16.7	18.6
O=C(Nc1c[nH]nc1-c1nc2ccc(CN3CCOCC3)cc2[nH]1)NC1CC1 [AT9283] (top concentration tested 1000 nM)	0	0.75	0.91	1.49
CN[C@@H](C)C(=O)N[C@H]1CN(C(=O)CC(C)C)CC[C@H]2CC[C@@H](C(=O)NC(c3ccccc3)c3ccccc3)N2C1=O [AT-406] (top concentration tested 10000 nM)	12.6	33.2	8.75	17.9
CC[C@H](CC#N)OC(=O)N[C@@H](C)c1cccc(NC(=O)Nc2ccc(-c3cnco3)c(OC)c2)c1 [AVN944] (top concentration tested 10000 nM)	1.07	6.87	17.1	20.7
COc1cc(N2CCN(C)CC2)ccc1Nc1nccc(-c2cn(C)c3cnccc23)n1 [AZ191] (top concentration tested 10000 nM)	1.68	2.77	6.19	4.19
COc1cc(OC2CCN(C)CC2)ccc1Nc1ncc2c(n1)n(C1CCCC1)c(=O)n2C [AZ 3146] (top concentration tested 10000 nM)	4.52	11.4	8.94	11.3
CC(C)Oc1cc(Nc2nc(N[C@@H](C)c3ccc(F)cn3)ncc2Cl)n[nH]1 [AZ-23] (top concentration tested 1000 nM)	0	1.27	3.11	6.5

Reference: the supplement of paper PMC7108870
